Results reported in US20040131619A1, “Thymic atrophy” (DUKE UNIVERSITY, priority 2002, published 2004).

Experiments:
BALB/c mice = test: LIF-induced acute thymic atrophy (metyrapone pre-treatment, adrenalectomy); type: in vivo; conditions: metyrapone 30 mg/kg IP 24 hours before LIF for 3 days; P<0.0094
Protocol: Normal and adrenalectomized female BALB/c mice (6-8 week) were purchased from The Jackson Laboratory (Bar Harbor, Me.). Animals were housed in specific pathogen free conditions in the Duke University Vivarium Barrier (Durham, N.C.). Mouse handling and experimental procedures were conducted in accordance with AALAC and the Duke University IACUC guidelines for animal care and use.
Animals were treated with either E. coli LPS (Sigma, L2880, St. Louis, Mo.), recombinant murine LIF (R&D Systems, Minneapolis, Minn.), goat IgG (Sigma) or anti-mouse LIF polyclonal goat IgG (R&D Systems) and metyrapone (Sigma). Mouse thymus tissue was excised following euthanasia. Half of each thymus was snap frozen in a dry ice/ETOH bath and stored in liquid nitrogen for RNA extraction and the other half was teased into a single-cell suspension as previously described (Sempowski et al, Journal of Immunology 164:2180 (2000)). […]
Normal and bilaterally adrenalectomized BALB/c mice were treated with LIF (3 μg, 3× a day) or saline for 3 days, and the degree of thymic atrophy assessed. […] To evaluate the status of LIF mRNA in the thymus of LIF injected mice, thymus LIF mRNA levels were determined in control and LIF-treated mice. […]

[1] = test system: CD3+, CD4/CD8 DP thymocytes; test: Murine fetal thymic organ culture (FTOC); type: cell-based, mouse
Protocol: Phenotypic analysis of thymocyte suspensions was performed on a FACSVantage SE (Becton Dickinson) using fluorescein isothiocyanate-CD3, phycoerythrin-CD4, and phycoerythrin cychrome 5-CD8 (Pharmingen) as previously described (Sempowski et al, Journal of Immunology 164:2180 (2000)). Annexin V-FITC/propidium iodide (PI) staining was used to determine thymocyte apoptosis, necrosis and viability (Coulter).
FTOC were established following the methods described by Vacchio et al. (Journal of Experimental Medicine 185:2033 (1997)). Briefly, thymic lobes were removed from 17 day gestation fetal mice and were cultured in 6-well plates on Gelfoam (Pharmacia & Upjohn, Kalamazoo, Mich.) rafts. Cultures (2-4 lobes/well) were treated with murine LIF (R&D Systems) with or without metyrapone and then harvested by disruption against a 70 μm cell strainer (Becton Dickinson) with a 1 cc plunger (Becton Dickinson). Total thymocyte number per lobe was determined by hemacytometer count with trypan dye exclusion.
To directly determine if LIF can induce intrathymic corticosteroid production and thymocyte depletion, 17 day fetal thymic lobes in FTOC were treated with LIF (10 ng/ml) in the presence or absence of metyrapone (FIG. 4). Absolute numbers of CD3^+, CD4/CD8 DP thymocytes were quantitated as a measure of in vitro LIF-induced thymic atrophy after 72 hours. […]

Compound: CC(C)(C(=O)c1cccnc1)c1cccnc1 [Metyrapone, metyrapone]
- inhibition of LIF-induced acute thymic atrophy (BALB/c mice): 43%
- depletion of DP thymocytes ([1]; FTOC, 72 hours, agent alone (LIF 10 ng/ml; metyrapone alone), P<0.05): 8%
- LIF-induced depletion of DP thymocytes ([1]; metyrapone added to LIF-treated (10 ng/ml) FTOC): prevented
